Test results from patent publication US7863278B2, “Isethionate salt of a selective CDK4 inhibitor” (Warner-Lambert CompanyLLC, priority 2003, dated 2011).
Like-named read-outs stand apart in the source and are kept apart here. Values belong to the molecule of their own block, whether it stands above or below them.

Columns and labels:
neointima formation = details: rats; cited from earlier work
water solubility = format: physicochemical; details: for solubility at 14 h: thermodynamic from solid
From the text: The other isethionate salt forms were not evaluated for metastable solubility. […] See Table 5 for a list of HPLC conditions.

pKa of conjugate acid = format: physicochemical
From the text: The free base (Formula 1) is a dibasic compound, which may form both mono- and di-acid addition salts. Its conjugate acid has pKas of 7.3 and 4.1, so comparatively strong acids are necessary for generating the di-salt. Though it may be possible to form a di-isethionate salt of the compound of Formula 1, the mono-isethionate salt appears to be more useful since it requires less counter ion.

[1] = bioavailability in animal studies; format: in vivo
From the text: . However, moisture uptake studies reveal that, even at low relative humidity (10% RH), the di-HCl salt absorbs water in an amount greater than about 2% of its mass, making it unsuitable for use in a solid drug product. […]. However, the process for preparing the mono-HCl salt yields partially crystalline drug substance, indicating potential problems with process scale-up. Other salt forms of the compound of Formula 1 are thus needed.

SMILES: COc1ccc(CNc2nc(N(CCO)CCO)nc3c2ncn3C(C)C)cc1 [CVT-313]
inhibition of neointima formation (neointima formation): greater than 80%

Solubility mgA/mL (water solubility; free base final pH 7.9, 14 h equilibration): 0.009 mgA/mL
solubility at 14 h (water solubility; pH 7.9, water, read-out: free base solubility): 9.2 µg/mL
solubility at 14 h (water solubility; read-out: water solubility): 9 µg/mL
pKa (pKa of conjugate acid; read-out: pKa of conjugate acid (first)): 7.3
pKa (pKa of conjugate acid; read-out: pKa of conjugate acid (second)): 4.1
bioavailability in animal studies [1]: low bioavailability
SMILES: CC(=O)c1c(C)c2cnc(Nc3ccc(N4CCNCC4)cn3)nc2n(C2CCCC2)c1=O [Formula 1, 6-acetyl-8-cyclopentyl-5-methyl-2-(5-piperazin-1-yl-pyridin-2-ylamino)-8H-pyrido[2,3-d]pyrimidin-7-one]

water solubility (in words) (water solubility): adequate water solubility
SMILES: CC(=O)c1c(C)c2cnc(Nc3ccc(N4CCNCC4)cn3)nc2n(C2CCCC2)c1=O.Cl.Cl [di-HCl salt]
